Converted amounts (≈) assume the structure as drawn. Values belong to the compound of their own block, whether it stands above or below them.
Columns and labels:
[1] = Kinetic solubility of the compound in FaSSIF at pH 6.5 after 20 hrs by shake flask method; type: physicochemical; conditions: read-out: Kinetic_solubility
[2] = Kinetic solubility of the compound in HCl at pH 2 after 20 hrs by shake flask method; type: physicochemical; conditions: read-out: Kinetic_solubility
[3] = Kinetic solubility of the compound in phosphate buffered saline at pH 6.5 after 20 hrs by shake flask method; type: physicochemical; conditions: read-out: Kinetic_solubility
[4] = AUC (0 to 23 hrs) in NOD-scid IL-2Rgamma-null mouse model engrafted with Plasmodium falciparum 3D7 infected human erythrocytes at 50 mg/kg administered via oral gavage by LC-MS/MS method; type: ADME, organism-based; parameters: dose 50 mg/kg, time < 23 hr, route oral; conditions: in vivo
[5] = Cmax in BALB/c mouse at 20 mg/kg administered via oral gavage as bolus dose by LC-MS/MS method; type: ADME, organism-based; parameters: dose 20 mg/kg, route oral; conditions: in vivo
[6] = Tmax in NOD-scid IL-2Rgamma-null mouse model engrafted with Plasmodium falciparum 3D7 infected human erythrocytes at 25 mg/kg administered via oral gavage measured over 23 hrs post first dose by LC-MS/MS method; type: ADME, organism-based; conditions: in vivo
[7] = Tmax in NOD-scid IL-2Rgamma-null mouse model engrafted with Plasmodium falciparum 3D7 infected human erythrocytes at 50 mg/kg administered via oral gavage measured over 23 hrs post first dose by LC-MS/MS method; type: ADME, organism-based; conditions: in vivo
Mus musculus [8] = assay: Dose normalized AUC (0 to 23 hrs) in NOD-scid IL-2Rgamma-null mouse model engrafted with Plasmodium falciparum 3D7 infected human erythrocytes at 5 mg/kg administered via oral gavage by LC-MS/MS method; type: ADME, organism-based; conditions: in vivo
Mus musculus [9] = assay: Dose normalized Cmax in NOD-scid IL-2Rgamma-null mouse model engrafted with Plasmodium falciparum 3D7 infected human erythrocytes at 25 mg/kg administered via oral gavage measured over 23 hrs post first dose by LC-MS/MS method; type: ADME, organism-based; conditions: in vivo
Mus musculus [10] = assay: Dose normalized AUC (0 to 23 hrs) in NOD-scid IL-2Rgamma-null mouse model engrafted with Plasmodium falciparum 3D7 infected human erythrocytes at 10 mg/kg administered via oral gavage by LC-MS/MS method; type: ADME, organism-based; conditions: in vivo
[11] = Tmax in BALB/c mouse at 20 mg/kg administered via oral gavage as bolus dose by LC-MS/MS method; type: ADME, organism-based; conditions: in vivo
[12] = Cmax in NOD-scid IL-2Rgamma-null mouse model engrafted with Plasmodium falciparum 3D7 infected human erythrocytes at 10 mg/kg administered via oral gavage measured over 23 hrs post first dose by LC-MS/MS method; type: ADME, organism-based; parameters: dose 10 mg/kg, route oral; conditions: in vivo
Mus musculus [13] = assay: Dose normalized AUC (0 to 23 hrs) in NOD-scid IL-2Rgamma-null mouse model engrafted with Plasmodium falciparum 3D7 infected human erythrocytes at 25 mg/kg via oral gavage by LC-MS/MS method; type: ADME, organism-based; conditions: in vivo
[14] = Volume of distribution in Sprague-Dawley rat at 3 mg/kg, iv administered as 2 mins of infusion by LC-MS/MS method; type: ADME, organism-based; conditions: in vivo
[15] = AUC (0 to 23 hrs) in NOD-scid IL-2Rgamma-null mouse model engrafted with Plasmodium falciparum 3D7 infected human erythrocytes at 25 mg/kg administered via oral gavage by LC-MS/MS method; type: ADME, organism-based; parameters: time < 23 hr, dose 25 mg/kg, route oral; conditions: in vivo
[16] = Volume of distribution in BALB/c mouse at 5 mg/kg, iv administered as 2 mins of infusion by LC-MS/MS method; type: ADME, organism-based; conditions: in vivo
[17] = Cmax in BALB/c mouse at 5 mg/kg, iv administered as 2 mins of infusion by LC-MS/MS method; type: ADME, organism-based; parameters: dose 5 mg/kg, route intravenous; conditions: in vivo
[18] = AUC (0 to 23 hrs) in NOD-scid IL-2Rgamma-null mouse model engrafted with Plasmodium falciparum 3D7 infected human erythrocytes at 5 mg/kg administered via oral gavage by LC-MS/MS method; type: ADME, organism-based; parameters: dose 5 mg/kg, time < 23 hr, route oral; conditions: in vivo
Mus musculus [19] = assay: Dose normalized AUC (0 to infinity) in BALB/c mouse at 20 mg/kg administered via oral gavage as bolus dose by LC-MS/MS method; type: ADME, organism-based; conditions: in vivo
[20] = Tmax in NOD-scid IL-2Rgamma-null mouse model engrafted with Plasmodium falciparum 3D7 infected human erythrocytes at 5 mg/kg administered via oral gavage measured over 23 hrs post first dose by LC-MS/MS method; type: ADME, organism-based; conditions: in vivo
[21] = Cmax in NOD-scid IL-2Rgamma-null mouse model engrafted with Plasmodium falciparum 3D7 infected human erythrocytes at 50 mg/kg administered via oral gavage measured over 23 hrs post first dose by LC-MS/MS method; type: ADME, organism-based; parameters: dose 50 mg/kg, route oral; conditions: in vivo
Rattus norvegicus [22] = assay: Dose normalized AUC (0 to infinity) in Sprague-Dawley rat at 15 mg/kg administered via oral gavage as bolus dose by LC-MS/MS method; type: ADME, organism-based; conditions: in vivo
Rattus norvegicus [23] = assay: Dose normalized AUC (0 to infinity) in Sprague-Dawley rat at 3 mg/kg, iv administered as 2 mins of infusion by LC-MS/MS method; type: ADME, organism-based; conditions: in vivo
Mus musculus [24] = assay: Dose normalized Cmax in NOD-scid IL-2Rgamma-null mouse model engrafted with Plasmodium falciparum 3D7 infected human erythrocytes at 10 mg/kg administered via oral gavage measured over 23 hrs post first dose by LC-MS/MS method; type: ADME, organism-based; conditions: in vivo
[25] = Cmax in Sprague-Dawley rat at 3 mg/kg, iv administered as 2 mins of infusion by LC-MS/MS method; type: ADME, organism-based; parameters: dose 3 mg/kg, route intravenous; conditions: in vivo
[26] = Tmax in Sprague-Dawley rat at 15 mg/kg administered via oral gavage as bolus dose by LC-MS/MS method; type: ADME, organism-based; conditions: in vivo
Mus musculus [27] = assay: Dose normalized Cmax in NOD-scid IL-2Rgamma-null mouse model engrafted with Plasmodium falciparum 3D7 infected human erythrocytes at 5 mg/kg administered via oral gavage measured over 23 hrs post first dose by LC-MS/MS method; type: ADME, organism-based; conditions: in vivo
Mus musculus [28] = assay: Dose normalized AUC (0 to infinity) in BALB/c mouse at 5 mg/kg, iv administered as 2 mins of infusion by LC-MS/MS method; type: ADME, organism-based; conditions: in vivo
[29] = Cmax in NOD-scid IL-2Rgamma-null mouse model engrafted with Plasmodium falciparum 3D7 infected human erythrocytes at 25 mg/kg administered via oral gavage measured over 23 hrs post first dose by LC-MS/MS method; type: ADME, organism-based; parameters: dose 25 mg/kg, route oral; conditions: in vivo
[30] = Oral bioavailability in BALB/c mouse at 20 mg/kg administered via gavage as bolus dose by LC-MS/MS method; type: ADME, organism-based; conditions: in vivo
[31] = Cmax in Sprague-Dawley rat at 15 mg/kg administered via oral gavage as bolus dose by LC-MS/MS method; type: ADME, organism-based; parameters: dose 15 mg/kg, route oral; conditions: in vivo
[32] = AUC (0 to 23 hrs) in NOD-scid IL-2Rgamma-null mouse model engrafted with Plasmodium falciparum 3D7 infected human erythrocytes at 10 mg/kg administered via oral gavage by LC-MS/MS method; type: ADME, organism-based; parameters: dose 10 mg/kg, time < 23 hr, route oral; conditions: in vivo
Mus musculus [33] = assay: Dose normalized AUC (0 to 23 hrs) in NOD-scid IL-2Rgamma-null mouse model engrafted with Plasmodium falciparum 3D7 infected human erythrocytes at 50 mg/kg administered via oral gavage by LC-MS/MS method; type: ADME, organism-based; conditions: in vivo
Mus musculus [34] = assay: Dose normalized Cmax in NOD-scid IL-2Rgamma-null mouse model engrafted with Plasmodium falciparum 3D7 infected human erythrocytes at 50 mg/kg administered via oral gavage measured over 23 hrs post first dose by LC-MS/MS method; type: ADME, organism-based; conditions: in vivo
[35] = Tmax in NOD-scid IL-2Rgamma-null mouse model engrafted with Plasmodium falciparum 3D7 infected human erythrocytes at 10 mg/kg administered via oral gavage measured over 23 hrs post first dose by LC-MS/MS method; type: ADME, organism-based; conditions: in vivo
[36] = Cmax in NOD-scid IL-2Rgamma-null mouse model engrafted with Plasmodium falciparum 3D7 infected human erythrocytes at 5 mg/kg administered via oral gavage measured over 23 hrs post first dose by LC-MS/MS method; type: ADME, organism-based; parameters: dose 5 mg/kg, route oral; conditions: in vivo
[37] = Oral bioavailability in Sprague-Dawley rat at 15 mg/kg administered via gavage as bolus dose by LC-MS/MS method; type: ADME, organism-based; conditions: in vivo
[38] = Drug metabolism in iv or po dosed BALB/c mouse plasma assessed as metabolism at cyclohexane ring by LC-MS/MS method; type: ADME, organism-based; conditions: in vivo
[39] = Drug metabolism in po dosed BALB/c mouse plasma assessed as oxidation of pyridine ring by LC-MS/MS method; type: ADME, organism-based; conditions: in vivo
[40] = Drug metabolism in po dosed BALB/c mouse plasma assessed as sulfation of pyridine ring by LC-MS/MS method; type: ADME, organism-based; conditions: in vivo
[41] = Drug metabolism in po dosed BALB/c mouse plasma assessed as glucuronidation of pyridine ring by LC-MS/MS method; type: ADME, organism-based; conditions: in vivo

- solubility kinetic at 20 h [1]: 50 to 100 µM (≈ 16.2 to 32.3 µg/mL)
- solubility kinetic at 20 h [2]: 125 µM (≈ 40.4 µg/mL)
- solubility kinetic at 20 h [3]: < 5 µM
SMILES: Fc1ccc(-c2nc3cnc(Nc4ccccn4)cc3[nH]2)cc1F

- AUC(0-t) at 23 h [4]: 88000 ng·h/mL
- Cmax [5]: 9.6 µM
- Tmax [6]: 0.5 to 23 h
- Tmax [7]: 0.25 to 2 h
- AUC/dose (Mus musculus [8]): 0.876 µg·h/mL/mg/kg
- Cmax/dose (Mus musculus [9]): 0.167 µg/mL/mg/kg
- AUC/dose (Mus musculus [10]): 0.867 µg·h/mL/mg/kg
- Tmax [11]: 1 h
- Cmax [12]: 927 ng/mL
- AUC/dose (Mus musculus [13]): 2.311 µg·h/mL/mg/kg
- Vd [14]: 3 L/kg
- solubility kinetic at 20 h [1]: 93 µM (≈ 37 µg/mL)
- AUC(0-t) at 23 h [15]: 46200 ng·h/mL
- Vd [16]: 1.5 L/kg
- Cmax [17]: 5.1 µM
- AUC(0-t) at 23 h [18]: 4380 ng·h/mL
- AUC/dose (Mus musculus [19]): 2178 µM·min
- Tmax [20]: 0.5 to 2 h
- Cmax [21]: 8650 ng/mL
- AUC/dose (Rattus norvegicus [22]): 342 µM·min
- AUC/dose (Rattus norvegicus [23]): 286 µM·min
- Cmax/dose (Mus musculus [24]): 0.093 µg/mL/mg/kg
- Cmax [25]: 2.6 µM
- Tmax [26]: 3 h
- solubility kinetic at 20 h [2]: 199 µM (≈ 79.1 µg/mL)
- Cmax/dose (Mus musculus [27]): 0.086 µg/mL/mg/kg
- AUC/dose (Mus musculus [28]): 1078 µM·min
- Cmax [29]: 3340 ng/mL
- bioavailability [30]: 51%
- Cmax [31]: 1.2 µM
- AUC(0-t) at 23 h [32]: 8670 ng·h/mL
- AUC/dose (Mus musculus [33]): 1.759 µg·h/mL/mg/kg
- Cmax/dose (Mus musculus [34]): 0.173 µg/mL/mg/kg
- Tmax [35]: 0.5 to 4 h
- solubility kinetic at 20 h [3]: 99 µM (≈ 39.3 µg/mL)
- Cmax [36]: 431 ng/mL
- bioavailability [37]: 24%
- Drug metabolism [38]: Metabolite_Notdetected
SMILES: FC1(F)CCC(c2nc3cnc(Nc4ccc(C(F)(F)F)cn4)cc3[nH]2)CC1

- Drug metabolism [39]: Metabolite_Detected
- Drug metabolism [40]: Metabolite_Detected
- solubility kinetic at 20 h [2]: 21 µM (≈ 7.46 µg/mL)
- Drug metabolism [41]: Metabolite_Detected
- solubility kinetic at 20 h [3]: < 5 µM
SMILES: FC(F)(F)c1cccc(-c2nc3cnc(Nc4ccccn4)cc3[nH]2)c1

- solubility kinetic at 20 h [1]: 50 to 100 µM (≈ 17.8 to 35.6 µg/mL)
- solubility kinetic at 20 h [2]: 180 µM (≈ 64.1 µg/mL)
- solubility kinetic at 20 h [3]: < 5 µM
SMILES: FC(F)(F)c1ccc(-c2nc3cnc(Nc4ccccn4)cc3[nH]2)cn1

Source: ChEMBL document CHEMBL4184318, “Identification of Fast-Acting 2,6-Disubstituted Imidazopyridines That Are Efficacious in the in Vivo Humanized Plasmodium falciparum NODscidIL2Rγ null Mouse Model of Malaria” (J Med Chem, 2018)
